From patent US7528170B2, “Sulfonamide derivatives for the treatment of diseases” (Pfizer Inc., priority 2004, dated 2009)

Target: T1, human β2 adrenergic receptor (Homo sapiens, UniProt P07550)
T1 construct: expressed in transfected cells; host or cells: CHO (Chinese Hamster Ovary) cells, CHOhβ2
Test: β2 cAMP agonist potency assay in CHOhβ2 cells (cAMP-Flashplate)
Format: cell-based
Conditions: CHO cells recombinantly expressing the human β2 adrenergic receptor; compounds incubated with cells for 1 hour; data as % Isoprenaline activity, four parameter sigmoid fit
Protocol: According to another alternative, the agonist potency for the β2 receptor of the compounds of the formula (1) may also be determined by the measure of the concentration of compound according to the present invention required to produce half maximal effect (EC50) for the β2 receptor.
10 mM/100% DMSO (dimethylsulfoxide) stock of compound is diluted to required top dose in 4% DMSO. This top dose is used to construct a 10-point semi-log dilution curve, all in 4% DMSO. Isoprenaline (Sigma, 1-5627) was used as a standard in every experiment and for control wells on each plate. Data was expressed as % Isoprenaline response.
CHO (Chinese Hamster Ovary) cells recombinantly expressing the human β2 adrenergic receptor (from Kobilka et al., PNAS 84: 46-50, 1987 and Bouvier et al., Mol Pharmacol 33: 133-139 1988 CHOhβ2) were grown in Dulbeccos MEM/NUT MIX F12 (Gibco, 21331-020) supplemented with 10% foetal bovine serum (Sigma, F4135, Lot 90K8404 Exp 09/04), 2 mM glutamine (Sigma, G7513), 500 μg/ml geneticin (Sigma, G7034) and 10 μg/ml puromycin (Sigma, P8833). Cells were seeded to give about 90% confluency for testing.
25 μl/well each dose of compound was transferred into a cAMP-Flashplate® (NEN, SMP004B), with 1% DMSO as basal controls and 100 nM Isoprenaline as max controls. This was diluted 1:2 by the addition of 25 μl/well PBS. Cells were trypsinised (0.25% Sigma, T4049), washed with PBS (Gibco, 14040-174) and resuspended in stimulation buffer (NEN, SMP004B) to give 1×10^6 cells/ml CHOhB2. Compounds were incubated with 50 μl/well cells for 1 hour. Cells were then lysed by the addition of 100 μl/well detection buffer (NEN, SMP004B) containing 0.18 μCi/ml ^125I-cAMP (NEN, NEX-130) and plates were incubated at room temperature for a further 2 hours. The amount of ^125I-cAMP bound to the Flashplate® was quantified using a Topcount NXT (Packard), normal counting efficiency for 1 minute. Dose-response data was expressed as % Isoprenaline activity and fitted using a four parameter sigmoid fit. […] The following table illustrate the activity of the compounds of the invention: […]

T1 sequence (P07550 whole entry): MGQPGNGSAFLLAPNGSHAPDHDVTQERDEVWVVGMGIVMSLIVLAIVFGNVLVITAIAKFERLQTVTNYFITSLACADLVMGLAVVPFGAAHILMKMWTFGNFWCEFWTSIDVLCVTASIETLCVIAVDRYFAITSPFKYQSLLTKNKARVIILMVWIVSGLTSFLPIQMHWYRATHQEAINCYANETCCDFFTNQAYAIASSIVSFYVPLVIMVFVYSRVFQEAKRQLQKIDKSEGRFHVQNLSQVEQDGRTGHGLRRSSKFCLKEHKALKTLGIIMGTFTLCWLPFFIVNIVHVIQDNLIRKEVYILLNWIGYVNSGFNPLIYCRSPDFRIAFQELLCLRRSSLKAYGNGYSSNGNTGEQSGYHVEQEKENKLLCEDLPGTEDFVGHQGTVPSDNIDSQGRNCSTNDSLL

EC50 [nM] | SMILES
0.03 | COc1cc(CNC(=O)Cc2cccc(CC(C)(C)NC[C@H](O)c3ccc(O)c(NS(C)(=O)=O)c3)c2)ccc1O [Example 1, 2-(3-{2-[((2R)-2-Hydroxy-2-{4-hydroxy-3-[(methylsulfonyl)amino]phenyl}ethyl)amino]-2-methylpropyl}phenyl)-N-(4-hydroxy-3-methoxybenzyl)acetamide]
0.24 | CC(C)(Cc1cccc(CC(=O)NCc2ccc(-c3ccc(O)cc3)cc2)c1)NC[C@H](O)c1ccc(O)c(NS(C)(=O)=O)c1 [Example 2, N-[(4′-Hydroxybiphenyl-4-yl)methyl]-2-(3-{2-[((2R)-2-hydroxy-2-{4-hydroxy-3-[(methylsulfonyl)amino]phenyl}ethyl)amino]-2-methylpropyl}phenyl)acetamide]
0.16 | CC(C)(Cc1cccc(CC(=O)NCc2ccc3cc(O)ccc3c2)c1)NC[C@H](O)c1ccc(O)c(NS(C)(=O)=O)c1 [Example 6]
0.26 | CC(C)(Cc1cccc(CC(=O)NCc2cccc(-c3ccc(O)cc3)c2)c1)NC[C@H](O)c1ccc(O)c(NS(C)(=O)=O)c1 [Example 7, N-[(4′-Hydroxybiphenyl-3-yl)methyl]-2-(3-{2-[((2R)-2-hydroxy-2-{4-hydroxy-3-[(methylsulfonyl)amino]phenyl}ethyl)amino]-2-methylpropyl}phenyl)acetamide]
0.45 | CC(C)(Cc1cccc(CC(=O)NCC(C)(C)c2ccc(O)cc2)c1)NC[C@H](O)c1ccc(O)c(NS(C)(=O)=O)c1 [Example 9, 2-(3-{2-[((2R)-2-Hydroxy-2-(4-hydroxy-3-[(methylsulfonyl)amino]phenyl)ethyl)amino]-2-methylpropyl}phenyl)-N-[2-(4-hydroxyphenyl)-2-methylpropyl]acetamide]
0.08 | CC(C)(Cc1cccc(CC(=O)N2CCc3cc(O)ccc3C2)c1)NC[C@H](O)c1ccc(O)c(NS(C)(=O)=O)c1 [Example 13, N-(2-Hydroxy-5-{(1R)-1-hydroxy-2-[(2-{3-[2-(6-hydroxy-3,4-dihydroisoquinolin-2(1H)-yl)-2-oxoethyl]phenyl}-1,1-dimethylethyl)amino]ethyl}phenyl)methanesulfonamide]
0.09 | CC(C)(Cc1cccc(CC(=O)NCCc2ccc(O)cc2)c1)NC[C@H](O)c1ccc(O)c(NS(C)(=O)=O)c1 [Example 15, 2-(3-{2-[((2R)-2-Hydroxy-2-{4-hydroxy-3-[(methylsulfonyl)amino]phenyl}ethyl)amino]-2-methylpropyl}phenyl)-N-[2-(4-hydroxyphenyl)ethyl]acetamide]
0.29 | CC(C)(Cc1cccc(CC(=O)NCc2cc(O)cc(C(F)(F)F)c2)c1)NC[C@H](O)c1ccc(O)c(NS(C)(=O)=O)c1 [Example 20, 2-(3-{2-[((2R)-2-Hydroxy-2-{4-hydroxy-3-[(methylsulfonyl)amino]phenyl}ethyl)amino]-2-methylpropyl}phenyl)-N-[3-hydroxy-5-(trifluoromethyl)benzyl]acetamide]
